Assay results: patent publication EP4722262A1, “PHOTOCURABLE COMPOSITION, THREE-DIMENSIONAL SHAPED OBJECT, CASTING MOLD, METHOD FOR PRODUCING CURED OBJECT, AND METHOD FOR PRODUCING DENTAL PROSTHESIS” (Mitsui Chemicals, Inc., priority 2023, dated 2025)

Assay: Viscosity at 25°C of manufactured monomers
Assay type: physicochemical

## C=CC(=O)OCCOC(=O)NCCC(C)CC(C)(C)CNC(=O)OCCOC(=O)C=C (stereo not shown) [SUA-001]
  viscosity at 25°C: 7,100 mPa·s
